In US8790695B2, “Medicinal carriers, and preparation method and uses thereof” (China Medical University, priority 2012, dated 2014):

Columns and labels:
Helicobacter pylori [1] = settings: infected mice, fed 30 mg/kg amoxicillin once daily for 10 days
Text: Small black mice were fed with a broth containing 1.0×10^9 CFU/ml Helicobacter pylori continually for 6 times in 2 weeks, to establish a Helicobacter pylori-infected animal model. The mice were fasted one night before fed with Helicobacter pylori, to decrease the mucus in the stomach, and thereby, increase the probability of infection. Then, the Helicobacter pylori-infected mice (6 mice each group) were fed with (a) the nano medicinal carrier obtained from example 1 (2) (control group); (b) 30 mg/kg amoxicillin; and (c) nano medicinal carrier (the concentration of amoxicillin, 30 mg/kg) obtained from example 1 (4) once daily for 10 days. Then, the mice were sacrificed, and the tissue in the stomach was taken off to conduct the colony number experiment.

Helicobacter pylori [2] = settings: stomach tissue of infected mice, 37° C. for 12 hours
Text: Small black mice were fed with a broth containing 1.0×10^9 CFU/ml Helicobacter pylori continually for 6 times in 2 weeks, to establish a Helicobacter pylori-infected animal model. The mice were fasted one night before fed with Helicobacter pylori, to decrease the mucus in the stomach, and thereby, increase the probability of infection. Then, the Helicobacter pylori-infected mice (6 mice each group) were fed with (a) the nano medicinal carrier obtained from example 1 (2) (control group); (b) 30 mg/kg amoxicillin; and (c) nano medicinal carrier (the concentration of amoxicillin, 30 mg/kg) obtained from example 1 (4) once daily for 10 days.
Campylobacter-like organism assay (CLO assay) was conducted to evaluate the effect of nano medicinal carrier on treating the Helicobacter pylori-infected mice. The internal side of the stomach tissue of the Helicobacter pylori-infected mice was touch with CLO gel and compressed, the tissue was incubated at 37° C. for 12 hours, and the variation of the color of the CLO gel was observed. The CLO gel without Helicobacter pylori (contacted with deionized water) is a yellow color. The CLO gel with a little of Helicobacter pylori is a yellow-orange color. The CLO gel with a lot of Helicobacter pylori is a red color. A darker color represents a higher amount of Helicobacter pylori.

CC1(C)S[C@@H]2[C@H](NC(=O)[C@H](N)c3ccc(O)cc3)C(=O)N2[C@H]1C(=O)O [amoxicillin solution, amoxicillin]
The colony number of Helicobacter pylori in the stomach tissue of the mice (Helicobacter pylori [1]): 316.9 ± 30.5
color of the CLO gel (darker color = higher amount of Helicobacter pylori) (Helicobacter pylori [2]): red color
